ChEMBL document CHEMBL4699572, “Identification of Antifungal Bisphosphocholines from Medicinal Gentiana Species” (2020)
Activity calls are given as the source filed them. The rule behind the calls is not given here.

Columns and labels:
Format in all cases: functional
[1] = system: Nakaseomyces glabratus; assay: Antifungal activity against Candida glabrata ATCC 90030 assessed as reduction in microbial growth after 18 to 24 hrs by CLSI based method; conditions: time hrs 18-24
[2] = system: Aspergillus fumigatus; assay: Antifungal activity against Aspergillus fumigatus ATCC 204305 assessed as reduction in microbial growth after 72 hrs by CLSI based method
[3] = system: Candida albicans; assay: Antifungal activity against Candida albicans ATCC 90028 assessed as reduction in microbial growth after 18 to 24 hrs by CLSI based method; conditions: time hrs 18-24
[4] = system: Cryptococcus neoformans; assay: Antifungal activity against Cryptococcus neoformans ATCC 90113 assessed as reduction in microbial growth after 72 hrs by CLSI based method

MIC [1] [µg/mL] | MIC [3] [µg/mL] | Compound | Activity [1] | Activity [2] | Activity [3] | Activity [4] | MIC [2] [µg/mL] | MIC [4] [µg/mL]
– | – | C[N+](C)(C)CCOP(=O)([O-])OCCCCCCCCCCCCCCCCCCCCCCCOP(=O)([O-])OCC[N+](C)(C)C | inactive | inactive | inactive | inactive | – | –
– | – | C[N+](C)(C)CCOP(=O)([O-])OCCCCCCCCCCCCCCCCCCCCCCCCOP(=O)([O-])OCC[N+](C)(C)C | inactive | inactive | inactive | inactive | – | –
5 | 10 | C[N+](C)(C)CCOP(=O)([O-])OCCCCCCCCCCCCCCCCCCCCCCOP(=O)([O-])OCC[N+](C)(C)C | – | – | – | – | 1.25 | 0.63
– | – | C[C@@H]1[C@H](O)[C@@H](C)/C=C/C=C/C=C/C=C/C=C/C=C/C=C/[C@H](O[C@@H]2O[C@H](C)[C@@H](O)[C@H](N)[C@@H]2O)C[C@@H]2O[C@](O)(C[C@@H](O)C[C@@H](O)[C@H](O)CC[C@@H](O)C[C@@H](O)CC(=O)O[C@H]1C)C[C@H](O)[C@H]2C(=O)O [AMPHOTERICIN B] | – | – | – | – | 2.5 | 0.63
– | – | C[N+](C)(C)CCOP(=O)([O-])OCCCCCCCCCCCCCCCCCCCCCOP(=O)([O-])OCC[N+](C)(C)C | inactive | inactive | inactive | inactive | – | –
